{"source": "patent US20120295844A1", "about": "“USE OF APROTININ FOR TREATING PARASITIC INFECTIONS AND PROGNOSING BOVINE TRYPANOTOLERANCE” (priority 2010, published 2012)", "key": {"[1]": {"test_system": "\"trypsin-like\" (serine protease) in Leishmania donovani infantum (Ldi) lysates", "assay": "BAPNA degradation by Leishmania donovani infantum (Ldi) lysates", "format": "biochemical", "settings": "BPTI 625 μg; lysate alone 2.893", "method": "(§1) The parasites were placed in rodent culture and purified on a DEAE cellulose column. The parasites were then counted, and lysed by means of 4 successive 1-minute passages in liquid nitrogen and in a water-bath at 37° C. The tests were conducted on three independent procedures in triplicate using […]. The method used for detecting “trypsin-like” (serine protease) consists of measuring, as a function of time, the initial degradation rate of a homogeneous substrate, N-benzoyl-ariginine-p-nitroaniline (BAPNA), under the effect of “trypsin-like” found in lysates in the presence of absence of BPTI. The appearance of the degradation product, p-nitroalinine (p-Na), which is yellow in colour, is measured by means of spectrophotometry at 405 nm. The enzyme activity calculation is performed according to the Beer-Lambert law.\n(§2) Leishmania (Ldi and Ldd8) were placed in culture in RMPI supplemented with 10% FCS, 1% penicillin/streptomycin and 1% Ultraglutamine and placed in an incubator) 37° C./5% CO2 for one week. The leishmania are counted and lysed according to the protocol defined for trypanosome lysis. The method for detecting and the method for calculating the enzyme activity were identical to those used for trypanosomes. The tests using Ldi and Ldd8 were conducted on three independent procedures in triplicate using […]."}, "[2]": {"test_system": "NO production by RAW 264.7 macrophage line cells", "assay": "NO production inhibition by RAW 264.7 macrophage line (Griess assay)", "format": "cell-based, mouse", "settings": "LPS + IFNγ stimulated RAW 264.7 cells", "method": "(§3) Two different vials of the J774.2 line were used at the 8th and 9th passages. The cells from these vials were placed in culture in parallel, and the tests were triplicated. The cells were first stimulated with Lipopolysaccharide (LPS, InvivoGen) at a concentration of 100 ng/ml and with mouse interferon gamma (IDNγ, AbD serotex) at a final concentration of 10 ng/ml and incubated in the absence (control) or in the presence of various concentrations of BPTI (range of 12.5 to 100 μM) for 15 hours at 37° C./5% CO2 in a complete medium containing DMEM glutamax (Gibco) supplemented with 10% foetal calf serum (FCS) and 1% penicillin/streptamycin. The quantity of NO produced was determined by means of a colorimetric assay according to the Griess principle (Pinelli et al., Vet. Parasitol., 2000, 92: 181-189). For each BPTI concentration, NO production inhibition percentage is calculated according to the following formula: […]\nTwo different vials of the RAW 264.7 line were used at the 10th and 11th passages. The cells from these vials were placed in culture in parallel, and the tests were triplicated and performed as described above."}, "[3]": {"test_system": "Trypanosoma congolense IL1180", "assay": "Viability of Trypanosoma congolense IL1180 cultured in vitro (FACS, microscopy)", "format": "cell-based", "settings": "for mortality induced by BPTI (natural mortality subtracted): 48 hours", "method": "Before adding BPTI and for measurement times: 1.5 hours, 17 hours and 24 hours, the parasites (Trypanosoma congolense IL1180) are clearly visible; their form is as expected (fusiform), and they are mobile. However, the mortality becomes increasingly visible over time. The impact of BPTI on morphology is perceptible 17 hours (and thereafter) after adding BPTI to the culture. […] In order to analyze the effect of BPTI on parasite viability, flow cytometry measurements were made at different times (1.5 hours, 17 hours, 24 hours and 48 hours after adding 100 μM or 200 μM of BPTI for parasite concentrations of 5×10^6 parasites/ml and 10×10^6 parasites/ml). The results obtained are represented in graphs A and B in FIG. 7. There is a “natural” mortality of Trypanosoma congolense in vitro, due to the difficulty maintaining sanguicolous forms of Trypanosoma congolense in liquid culture. This mortality increases over time and reaches values of 49.1% and 47.1% under conditions using 5.10^6 parasites/ml and 10.10^6 parasites/ml, respectively. However, a trypanocidal action of BPTI may be observed on trypanosome cultures, a slight dose-dependent effect of BPTI on parasite viability may be recorded. The effect of BPTI is extremely significant and appears to be also time-dependent. […] The mortality induced by BPTI on a population of 5×10^6 trypanosomes (10×10^6 parasites/ml) under the same conditions is 49.6% and 48.8%, respectively (see graphs A and B in FIG. 8)."}, "[4]": {"test_system": "\"trypsin-like\" (serine protease) in Trypanosoma congolense (Tc. IL1180) lysates", "assay": "BAPNA degradation by Trypanosoma congolense (Tc. IL1180) lysates", "format": "biochemical", "settings": "BPTI 3.125 mg/ml or 481.25 μM or 625 μg/well, BAPNA 0.315 mM", "method": "as §1"}, "[5]": {"test_system": "Leishmania donovani infantum (Ldi)", "assay": "Viability and growth of Leishmania donovani infantum (Ldi) cultured in vitro (FACS)", "format": "cell-based", "settings": "BPTI 50, 100, 200 μM", "method": "The growth and viability of Leismania donovani infantum parasites were measured by FACS at 4, 12, 24, 48, 72, 144 and 168 hours of culture after addition of BPTI at concentrations of 50, 100 and 200 μM. The results are presented in graphs A and B in FIG. 10.\nThe effect of BPTI was tested for each time value with a non-parametric test (Kruskal-Wallis test)."}, "[6]": {"test_system": "\"trypsin-like\" (serine protease) in Leishmania donovani donovani (Ldd8) lysates", "assay": "BAPNA degradation by Leishmania donovani donovani (Ldd8) lysates", "format": "biochemical", "settings": "BPTI 625 μg; lysate alone 1.767", "method": "as §1, §2"}, "[7]": {"test_system": "NO production by bovine macrophages", "assay": "NO production inhibition by bovine macrophages derived from circulating monocytes", "format": "cell-based", "settings": "LPS + bovine IFNg", "method": "as §3\nBovine monocytes were isolated from circulating monocytes. Two independent tests were performed and each of the tests was triplicated. The monocytes were stimulated with LPS at a concentration of 250 ng/ml and bovine IFNg at a final concentration of 10 ng/ml. The cells were then incubated in the absence ([…]) for 20 hours (test 1) and 24 hours (test 2) at 37° C./5% CO2 in IMDM complete medium containing IMDM supplemented with L-glutamine at […] final, gentamicin at 50 μg/ml final, 10% FCS and 5×10^−5 M b-mercaptoethanol."}, "[8]": {"test_system": "NO production by J774.2 macrophage line cells", "assay": "NO production inhibition by J774.2 macrophage line (Griess assay)", "format": "cell-based, mouse", "settings": "LPS + IFNγ stimulated J774.2 cells, 15 hours", "method": "as §3"}}, "data": [{"substance": "aprotinin [BPTI]", "values": [{"measurement": "lysate enzyme activity with BPTI", "setting": "[1]", "value": 1.555}, {"measurement": "NO production inhibition", "setting": "[2]; BPTI 12.5 μM", "value": "NO inhibition was observed"}, {"measurement": "NO production inhibition", "setting": "[2]; BPTI 25 μM", "value": 0.2, "unit": "%"}, {"measurement": "NO production inhibition", "setting": "[2]; BPTI 50 μM", "value": 16.1, "unit": "%"}, {"measurement": "NO production inhibition", "setting": "[2]; BPTI 100 μM", "value": 47.6, "unit": "%"}, {"measurement": "effect on parasite morphology (microscopic observation)", "setting": "[3]; 17 hours and thereafter after adding BPTI to the culture", "value": "Spherical forms are observed"}, {"measurement": "mortality induced by BPTI (natural mortality subtracted)", "setting": "[3]; BPTI 100 μM, 2.5×10^6 trypanosomes (5×10^6 parasites/ml)", "value": 46, "unit": "%"}, {"measurement": "mortality induced by BPTI (natural mortality subtracted)", "setting": "[3]; BPTI 100 μM, 5×10^6 trypanosomes (10×10^6 parasites/ml)", "value": 49.6, "unit": "%"}, {"measurement": "mortality induced by BPTI (natural mortality subtracted)", "setting": "[3]; BPTI 200 μM, 2.5×10^6 trypanosomes (5×10^6 parasites/ml)", "value": 47.4, "unit": "%"}, {"measurement": "mortality induced by BPTI (natural mortality subtracted)", "setting": "[3]; BPTI 200 μM, 5×10^6 trypanosomes (10×10^6 parasites/ml)", "value": 48.8, "unit": "%"}, {"measurement": "increase of in vitro parasite mortality", "setting": "[3]; summary statement referring to Example 2", "value": 50, "unit": "%"}, {"measurement": "mean inhibition of lysate enzyme activity", "setting": "[4]", "value": 44.6, "unit": "%"}, {"measurement": "lysate enzyme activity in the presence of BPTI", "setting": "[4]; lysate alone 1.893", "value": "1.048 (Standard deviation 0.073)"}, {"measurement": "effect on the viability of leishmania (Kruskal-Wallis test)", "setting": "[5]; 72 hours, P-value=0.05", "value": "at the limit of significance"}, {"measurement": "effect on the viability of leishmania (Kruskal-Wallis test)", "setting": "[5]; 144 hours, P-value=0.05", "value": "significant effect"}, {"measurement": "effect on the number of leishmania (growth, Kruskal-Wallis test)", "setting": "[5]; 168 hours only, P-value=0.03", "value": "significant effect"}, {"measurement": "effect on the viability of leishmania (Kruskal-Wallis test)", "setting": "[5]; 168 hours, P-value=0.03", "value": "significant effect"}, {"measurement": "effect on the viability of leishmania (Kruskal-Wallis test)", "setting": "[5]; other observation times (4, 12, 24, 48 hours)", "value": "not significant"}, {"measurement": "lysate enzyme activity with BPTI", "setting": "[6]", "value": 1.0893}, {"measurement": "mean inhibition of NO production", "setting": "[7]; Test 1, 20 hours, BPTI 12.5 μM", "value": 8.4, "unit": "%"}, {"measurement": "mean inhibition of NO production", "setting": "[7]; Test 1, 20 hours, BPTI 25 μM", "value": 14.2, "unit": "%"}, {"measurement": "mean inhibition of NO production", "setting": "[7]; Test 1, 20 hours, BPTI 50 μM", "value": 32.6, "unit": "%"}, {"measurement": "mean inhibition of NO production", "setting": "[7]; Test 1, 20 hours, BPTI 100 μM", "value": 70.5, "unit": "%"}, {"measurement": "mean inhibition of NO production", "setting": "[7]; Test 2, 24 hours, BPTI 6.25 μM", "value": 12, "unit": "%"}, {"measurement": "mean inhibition of NO production", "setting": "[7]; Test 2, 24 hours, BPTI 12.5 μM", "value": 25.9, "unit": "%"}, {"measurement": "mean inhibition of NO production", "setting": "[7]; Test 2, 24 hours, BPTI 25 μM", "value": 62.5, "unit": "%"}, {"measurement": "mean inhibition of NO production", "setting": "[7]; Test 2, 24 hours, BPTI 50 μM", "value": 70, "unit": "%"}, {"measurement": "mean inhibition of NO production", "setting": "[7]; Test 2, 24 hours, BPTI 100 μM", "value": 60.2, "unit": "%"}, {"measurement": "NO production inhibition", "setting": "[8]; BPTI 12.5 μM", "value": 1.7, "unit": "%"}, {"measurement": "NO production inhibition", "setting": "[8]; BPTI 25 μM", "value": 16.2, "unit": "%"}, {"measurement": "NO production inhibition", "setting": "[8]; BPTI 50 μM", "value": 30.1, "unit": "%"}, {"measurement": "NO production inhibition", "setting": "[8]; BPTI 100 μM", "value": 59.5, "unit": "%"}]}]}
